What follows are compounds tested against T1, Human Factor D (Homo sapiens, UniProt P00746) (assay: Human Factor D Assay). Details: Human Factor D 80 nM, substrate Z-L-Lys-SBzl; Table 2; read-out: IC50 (Stars).
T1 construct: purified from human serum; purchased Complement Technology, Inc; host or cells: human serum (natural protein, not recombinant)
T1 sequence (P00746 26-253): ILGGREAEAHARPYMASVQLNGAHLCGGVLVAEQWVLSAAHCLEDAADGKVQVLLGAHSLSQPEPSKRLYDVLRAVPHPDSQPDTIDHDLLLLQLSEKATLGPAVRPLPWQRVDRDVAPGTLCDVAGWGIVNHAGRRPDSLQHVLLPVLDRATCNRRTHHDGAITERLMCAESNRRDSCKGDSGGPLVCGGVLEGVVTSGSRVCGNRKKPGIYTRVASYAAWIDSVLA
Assay type: biochemical
Procedure, shortened: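 Serum-purified human factor D (80 nM final) preincubated 5 min at room temperature with test compound in 50 mM Tris, 1M NaCl, pH 7.5. Z-L-Lys-SBzl substrate and DTNB then added, each at 100 μM final. IC50 from nonlinear regression of reaction rate against compound concentration.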
For `CC(=O)c1nn(CC(=O)N2C[C@H]3C[C@H]3[C@H]2C(=O)Nc2nc(Br)ccc2C)c2c(C)cc(-c3cnc(CO)nc3)cc12` [Compound 61, (1R,2S,5S)-3-(2-(3-acetyl-5-(2-(hydroxymethyl)pyrimidin-5-yl)-7-methyl-11H-indazol-1-yl)acetyl)-N-(6-bromo-3-methylpyridin-2-yl)-3-azabicyclo[3.1.0]hexane-2-carboxamide], the IC50 was < 1 µM.
`CC(=O)c1cn(CC(=O)N2[C@H](C(=O)Nc3nc(Br)ccc3C)C[C@@]3(C)C[C@@H]23)c2c(C)cc(-c3cnc(CO)nc3)cc12` [Compound 62, (1R,3S,5R)-2-(2-(3-acetyl-5-(2-(hydroxymethyl)pyrimidin-5-yl)-7-methyl-11H-indol-1-yl)acetyl)-N-(6-bromo-3-methylpyridin-2-yl)-5-methyl-2-azabicyclo[3.1.0]hexane-3-carboxamide] was tested, and the IC50 was < 1 µM.
With `CC(=O)c1nn(CC(=O)N2C[C@H]3C[C@H]3[C@H]2C(=O)Nc2nc(Br)ccc2C)c2ccc(-c3cnc(CO)nc3)cc12` [Compound 63, (1R,2S,5S)-3-(2-(3-acetyl-5-(2-(hydroxymethyl)pyrimidin-5-yl)-1H-indazol-1-yl)acetyl)-N-(6-bromo-3-methylpyridin-2-yl)-3-azabicyclo[3.1.0]hexane-2-carboxamide] the IC50 was < 1 µM.
In the case of `CC(=O)c1nn(CC(=O)N2[C@H](C(=O)Nc3cncc(Br)n3)C[C@@]3(C)C[C@@H]23)c2ccc(-c3cnc(CO)nc3)cc12` [Compound 64, (1R,3S,5R)-2-(2-(3-acetyl-5-(2-(hydroxymethyl)pyrimidin-5-yl)-1H-indazol-1-yl)acetyl)-N-(6-bromopyrazin-2-yl)-5-methyl-2-azabicyclo[3.1.0]hexane-3-carboxamide], the IC50 is reported as < 1 µM.
With `COc1cc(Br)nc(NC(=O)[C@@H]2C[C@@]3(C)C[C@H]3N2C(=O)Cn2nc(C(C)=O)c3cc(-c4cnc(CO)nc4)cc(C)c32)c1` [Compound 65, (1R,3S,5R)-2-(2-(3-acetyl-5-(2-(hydroxymethyl)pyrimidin-5-yl)-7-methyl-11H-indazol-1-yl)acetyl)-N-(6-bromo-4-methoxypyridin-2-yl)-5-methyl-2-azabicyclo[3.1.0]hexane-3-carboxamide] the IC50 was < 1 µM.
`CC(=O)c1nn(CC(=O)N2[C@H](C(=O)Nc3nc(Br)ccc3C3CC3)C[C@@]3(C)C[C@@H]23)c2c(C)cc(-c3cnc(CO)nc3)cc12` [Compound 66, (1R,3S,5R)-2-(2-(3-acetyl-5-(2-(hydroxymethyl)pyrimidin-5-yl)-7-methyl-11H-indazol-1-yl)acetyl)-N-(6-bromo-3-cyclopropylpyridin-2-yl)-5-methyl-2-azabicyclo[3.1.0]hexane-3-carboxamide] was tested, and the IC50 was < 1 µM.
In the case of `COc1cc(Br)nc(NC(=O)[C@@H]2C[C@@]3(C)C[C@H]3N2C(=O)Cn2nc(C(C)=O)c3cc(-c4cnc(CO)nc4)ccc32)c1` [Compound 67, (1R,3S,5R)-2-(2-(3-acetyl-5-(2-(hydroxymethyl)pyrimidin-5-yl)-1H-indazol-1-yl)acetyl)-N-(6-bromo-4-methoxypyridin-2-yl)-5-methyl-2-azabicyclo[3.1.0]hexane-3-carboxamide], the IC50 is reported as < 1 µM.
With `CC(=O)c1nn(CC(=O)N2[C@H](C(=O)Nc3nc(Br)c(F)cc3C)C[C@@]3(C)C[C@@H]23)c2c(C)cc(-c3cnc(C(C)(C)O)nc3)cc12` [Compound 68, (1R,3S,5R)-2-(2-(3-acetyl-5-(2-(2-hydroxypropan-2-yl)pyrimidin-5-yl)-7-methyl-1H-indazol-1-yl)acetyl)-N-(6-bromo-5-fluoro-3-methylpyridin-2-yl)-5-methyl-2-azabicyclo[3.1.0]hexane-3-carboxamide] the IC50 was < 1 µM.
For `CC(=O)c1nn(CC(=O)N2C[C@H]3C[C@H]3[C@H]2C(=O)Nc2nc(Br)ccc2C)c2ccc(-c3cncc(S(N)(=O)=O)c3)cc12` [Compound 69, (1R,2S,5S)-3-(2-(3-Acetyl-5-(5-sulfamoylpyridin-3-yl)-1H-indazol-1-yl)acetyl)-N-(6-bromo-3-methylpyridin-2-yl)-3-azabicyclo[3.1.0]hexane-2-carboxamide], the IC50 was < 1 µM.
With `CC(=O)c1nn(CC(=O)N2[C@H](C(=O)N[C@H](C)C3CCCCC3)C[C@@]3(C)C[C@@H]23)c2c(C)cc(-c3cnc(C)nc3)cc12` [Compound 70, (1R,3S,5R)-2-(2-(3-acetyl-7-methyl-5-(2-methylpyrimidin-5-yl)-1H-indazol-1-yl)acetyl)-N—((R)-1-cyclohexylethyl)-5-methyl-2-azabicyclo[3.1.0]hexane-3-carboxamide] the IC50 was < 1 µM.
`CC(=O)c1nn(CC(=O)N2[C@H](C(=O)Nc3nc(Br)ccc3C)C[C@@]3(C)C[C@@H]23)c2ccc(-c3cncc(S(N)(=O)=O)c3)cc12` [Compound 71, (1R,3S,5R)-2-(2-(3-Acetyl-5-(5-sulfamoylpyridin-3-yl)-1H-indazol-1-yl)acetyl)-N-(6-bromo-3-methylpyridin-2-yl)-5-methyl-2-azabicyclo[3.1.0]hexane-3-carboxamide] was tested, and the IC50 was < 1 µM.
`CC(=O)c1nn(CC(=O)N2[C@H](C(=O)N[C@@H](C)C3CCCCC3)C[C@@]3(C)C[C@@H]23)c2c(C)cc(-c3cnc(C)nc3)cc12` [Compound 72, (1R,3S,5R)-2-(2-(3-Acetyl-7-methyl-5-(2-methylpyrimidin-5-yl)-1H-indazol-1-yl)acetyl)-N—((S)-1-cyclohexylethyl)-5-methyl-2-azabicyclo[3.1.0]hexane-3-carboxamide] was tested, and the IC50 was < 1 µM.
With `COc1cc(Br)nc(NC(=O)[C@@H]2[C@@H]3C[C@@H]3CN2C(=O)Cn2nc(C(C)=O)c3cc(-c4cnc(CO)nc4)cc(C)c32)c1` [Compound 73, (1R,2S,5S)-3-(2-(3-acetyl-5-(2-(hydroxymethyl)pyrimidin-5-yl)-7-methyl-11H-indazol-1-yl)acetyl)-N-(6-bromo-4-methoxypyridin-2-yl)-3-azabicyclo[3.1.0]hexane-2-carboxamide] the IC50 was < 1 µM.
For `CC(=O)c1nn(CC(=O)N2C[C@H]3C[C@H]3[C@H]2C(=O)Nc2cncc(Br)n2)c2c(C)cc(-c3cnc(CO)nc3)cc12` [Compound 74, (1R,2S,5S)-3-(2-(3-acetyl-5-(2-(hydroxymethyl)pyrimidin-5-yl)-7-methyl-11H-indazol-1-yl)acetyl)-N-(6-bromopyrazin-2-yl)-3-azabicyclo[3.1.0]hexane-2-carboxamide], the IC50 was < 1 µM.
`CC(=O)c1nn(CC(=O)N2C[C@H]3C[C@H]3[C@H]2C(=O)Nc2nc(Br)ccc2Cl)c2c(C)cc(-c3cnc(CO)nc3)cc12` [Compound 75, (1R,2S,5S)-3-(2-(3-acetyl-5-(2-(hydroxymethyl)pyrimidin-5-yl)-7-methyl-11H-indazol-1-yl)acetyl)-N-(6-bromo-3-chloropyridin-2-yl)-3-azabicyclo[3.1.0]hexane-2-carboxamide] was tested, and the IC50 was < 1 µM.
With `CC(=O)c1nn(CC(=O)N2C[C@H]3C[C@H]3[C@H]2C(=O)Nc2nc(Br)c(F)cc2C)c2c(C)cc(-c3cnc(CO)nc3)cc12` [Compound 76, (1R,2S,5S)-3-(2-(3-acetyl-5-(2-(hydroxymethyl)pyrimidin-5-yl)-7-methyl-11H-indazol-1-yl)acetyl)-N-(6-bromo-5-fluoro-3-methylpyridin-2-yl)-3-azabicyclo[3.1.0]hexane-2-carboxamide] the IC50 was < 1 µM.
For `CC(=O)c1cn(CC(=O)N2[C@H](C(=O)Nc3cncc(Br)n3)C[C@@]3(C)C[C@@H]23)c2c(C)cc(-c3cnc(CO)nc3)cc12` [Compound 77, (1R,3S,5R)-2-(2-(3-acetyl-5-(2-(hydroxymethyl)pyrimidin-5-yl)-7-methyl-1H-indol-1-yl)acetyl)-N-(6-bromopyrazin-2-yl)-5-methyl-2-azabicyclo[3.1.0]hexane-3-carboxamide], the IC50 was < 1 µM.
For `CC(=O)c1cn(CC(=O)N2[C@H](C(=O)Nc3nc(Br)c(F)cc3C)C[C@@]3(C)C[C@@H]23)c2c(C)cc(-c3cnc(CO)nc3)cc12` [Compound 78, (1R,3S,5R)-2-(2-(3-acetyl-5-(2-(hydroxymethyl)pyrimidin-5-yl)-7-methyl-1H-indol-1-yl)acetyl)-N-(6-bromo-5-fluoro-3-methylpyridin-2-yl)-5-methyl-2-azabicyclo[3.1.0]hexane-3-carboxamide], the IC50 was < 1 µM.
With `CC(=O)c1cn(CC(=O)N2C[C@H]3C[C@H]3[C@H]2C(=O)Nc2nc(Br)ccc2C)c2c(C)cc(-c3cnc(CO)nc3)cc12` [Compound 79, (1R,2S,5S)-3-(2-(3-acetyl-5-(2-(hydroxymethyl)pyrimidin-5-yl)-7-methyl-11H-indol-1-yl)acetyl)-N-(6-bromo-3-methylpyridin-2-yl)-3-azabicyclo[3.1.0]hexane-2-carboxamide] the IC50 was < 1 µM.
For `CC(=O)c1nn(CC(=O)N2[C@H](C(=O)Nc3nc(Br)ccc3Cl)C[C@@]3(C)C[C@@H]23)c2c(C)cc(-c3cnc(CO)nc3)cc12` [Compound 80, (1R,3S,5R)-2-(2-(3-acetyl-5-(2-(hydroxymethyl)pyrimidin-5-yl)-7-methyl-1H-indazol-1-yl)acetyl)-N-(6-bromo-3-chloropyridin-2-yl)-5-methyl-2-azabicyclo[3.1.0]hexane-3-carboxamide], the IC50 was < 1 µM.
`CC(=O)c1nn(CC(=O)N2[C@H](C(=O)Nc3nc(Br)ccc3C3CC3)C[C@@]3(C)C[C@@H]23)c2ccc(-c3cnc(CO)nc3)cc12` [Compound 81, (1R,3S,5R)-2-(2-(3-acetyl-5-(2-(hydroxymethyl)pyrimidin-5-yl)-1H-indazol-1-yl)acetyl)-N-(6-bromo-3-cyclopropylpyridin-2-yl)-5-methyl-2-azabicyclo[3.1.0]hexane-3-carboxamide] was tested, and the IC50 was < 1 µM.
With `CC(=O)c1nn(CC(=O)N2[C@H](C(=O)Nc3nc(Br)ccc3C)C[C@@]3(C)C[C@@H]23)c2c(C)cc(-c3ccc(CO)nc3)cc12` [Compound 82, (1R,3S,5R)-2-(2-(3-acetyl-5-(6-(hydroxymethyl)pyridin-3-yl)-7-methyl-1H-indazol-1-yl)acetyl)-N-(6-bromo-3-methylpyridin-2-yl)-5-methyl-2-azabicyclo[3.1.0]hexane-3-carboxamide] the IC50 was < 1 µM.
